Data on 17 compounds can be found in ChEMBL document CHEMBL2434824, “Synthesis, characterization and molecular docking studies of some new 1,3,4-oxadiazolines bearing 6-methylpyridine moiety for antimicrobial property” (Eur J Med Chem, 2013).

Structures are written as SMILES. Activity calls are given as the source filed them. The calls are words filed in the database; no cut-off is given here.

One assay has as its system Pseudomonas aeruginosa. Kind of assay: Antibacterial activity against Pseudomonas aeruginosa ATCC 27853 at 0.5 to 1 mg/ml at 37 degC after 18 hrs by well plate method. The assay is classed as functional, organism-based.
The next assay has as its system Staphylococcus aureus. Kind of assay: Antibacterial activity against Staphylococcus aureus ATCC 25923 at 0.5 to 1 mg/ml at 37 degC after 18 hrs by well plate method. Type of assay: functional, organism-based.
In assay [1] the test system is Radical scavenging activity. Kind of assay: Antioxidant activity assessed as DPPH radical scavenging activity at 100 ug after 10 mins by UV-Visible spectrophotometry. Type of assay: functional.
The next assay concerns Aspergillus flavus. The experiment in a line: Antifungal activity against Aspergillus flavus at 0.5 to 1 mg/ml at 25 degC after 3 days by well plate method. Type of assay: functional, organism-based.
The subject of another assay is Escherichia coli. Kind of assay: Antibacterial activity against Escherichia coli ATCC 25922 at 0.5 to 1 mg/ml at 37 degC after 18 hrs by well plate method. Type of assay: functional, organism-based.
Assay [2] in a line: Antifungal activity against Chrysosporium keratinophilum at 0.5 to 1 mg/ml at 25 degC after 3 days by well plate method. The assay is classed as functional.

For `CC(=O)N1N=C(c2ccc(C)nc2)OC1c1cccc(Cl)c1F` (stereo unspecified), the outcome (with Pseudomonas aeruginosa; in the assay on Staphylococcus aureus; with Aspergillus flavus; in the assay with Escherichia coli; in assay [2]) was Active. Besides, in assay [1], the Activity came to 37.3%.

As for `CC(=O)N1N=C(c2ccc(C)nc2)OC1(C)c1cccc(Br)c1` (stereo unspecified), the result (in the assay with Pseudomonas aeruginosa; in the assay on Staphylococcus aureus; in the assay with Aspergillus flavus; with Escherichia coli; in assay [2]) was Active. For the same compound, in assay [1], the Activity was 32.9%.

`COc1ccc2cc(C3OC(c4ccc(C)nc4)=NN3C(C)=O)ccc2c1` (stereo unspecified): in assay [1], the Activity came out at 27.5%.

In the case of `CN[C@@H]1[C@H](O[C@H]2[C@H](O[C@H]3[C@H](O)[C@@H](O)[C@H](N=C(N)N)[C@@H](O)[C@@H]3N=C(N)N)O[C@@H](C)[C@]2(O)C=O)O[C@@H](CO)[C@H](O)[C@H]1O`, the result in the assay on Pseudomonas aeruginosa, in the assay with Staphylococcus aureus and in the assay on Escherichia coli was Active.

Take `OC(Cn1cncn1)(Cn1cncn1)c1ccc(F)cc1F`: the outcome (with Aspergillus flavus; in assay [2]) was Active.

With `CC(=O)N1N=C(c2ccc(C)nc2)OC1(C)c1ccc(-c2ccccc2)cc1` (stereo unspecified), the Activity in assay [1] was 47.7%.

For `CC(=O)N1N=C(c2ccc(C)nc2)OC1c1ccc(-c2ccccc2)cc1` (stereo unspecified), the Activity in assay [1] was found to be 15.6%.

In the case of `COc1ccc(C2OC(c3ccc(C)nc3)=NN2C(C)=O)c(OC)c1` (stereo unspecified), the Activity in assay [1] is 24.3%.

As for `CC(=O)N1N=C(c2ccc(C)nc2)OC1(C)c1ccc([N+](=O)[O-])cc1` (stereo unspecified), the outcome in the assay with Pseudomonas aeruginosa, with Staphylococcus aureus and in the assay with Escherichia coli was Active. Moreover, in assay [1], the Activity was 52.4%.

Consider `Cc1cc(C(C)(C)C)c(O)c(C(C)(C)C)c1`, for which the Activity in assay [1] came out at 92.4%.

In the case of `CC(=O)N1N=C(c2ccc(C)nc2)OC1c1ccc(Br)cc1` (stereo unspecified), the outcome (in the assay with Pseudomonas aeruginosa; in the assay with Staphylococcus aureus; in the assay with Aspergillus flavus; in the assay on Escherichia coli; in assay [2]) was Active. The Activity in assay [1] is 65.5%.

Regarding `CC(=O)c1ccc(C2(C)OC(c3ccc(C)nc3)=NN2C(C)=O)cc1` (stereo unspecified), the Activity in assay [1] is 42.3%.

Consider `CC(=O)N1N=C(c2ccc(C)nc2)OC1c1ccc(Cl)cc1Cl` (stereo unspecified), for which the outcome (in the assay with Pseudomonas aeruginosa; with Staphylococcus aureus; in the assay on Aspergillus flavus; in the assay on Escherichia coli; in assay [2]) was Active. Besides, the Activity in assay [1] turned out to be 62.3%.

For `CC(=O)N1N=C(c2ccc(C)nc2)OC1c1ccc(O)c(O)c1` (stereo unspecified), the Activity in assay [1] was 13.3%.

Take `CC(=O)N1N=C(c2ccc(C)nc2)OC1(C)c1sccc1Br` (stereo unspecified): the outcome (in the assay with Pseudomonas aeruginosa; in the assay with Staphylococcus aureus; with Aspergillus flavus; in the assay on Escherichia coli; in assay [2]) was Active. The Activity in assay [1] worked out at 44.2%.

Regarding `CC(=O)N1N=C(c2ccc(C)nc2)OC1c1cccs1` (stereo unspecified), in assay [1], the Activity came out at 12%.

With `CC(=O)N1N=C(c2ccc(C)nc2)OC1c1ccc(Cl)cc1` (stereo unspecified), the outcome in the assay on Pseudomonas aeruginosa, with Staphylococcus aureus and in the assay on Escherichia coli was Active. Also, in assay [1], the Activity was determined as 49.2%.
